Reference: PubChem BioAssay (NCI)
Values joined by “and” are separate entries in the source; they are usually repeats but may differ in a detail not shown here. Identical values can stand only once.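 Test compounds were applied to cells in 96-well plates for 48 hours at 5 doses. At the GI50, growth is halved. At the TGI there is no net growth.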

Legend:
Test in all cases: DTP human tumour cell line panel, 48 h
[1] = system: TK-10 renal
[2] = system: NCI-H226 lung
[3] = system: COLO 205 colon
[4] = system: BT-549 breast
[5] = system: SR leukemia
[6] = system: HCT-15 colon
[7] = system: HT29 colon
[8] = system: T-47D breast
[9] = system: OVCAR-3 ovarian
[10] = system: NCI-H460 lung

| SMILES | TGI [1] | TGI [2] | TGI [3] | TGI [4] | TGI [5] [µM] | TGI [6] | TGI [7] | TGI [8] | TGI [9] | TGI [10] | GI50 [1] | GI50 [2] | GI50 [3] | GI50 [4] | GI50 [5] [µM] | GI50 [6] | GI50 [7] | GI50 [8] | GI50 [9] | GI50 [10] [µM] |
| --- | --- | --- | --- | --- | --- | --- | --- | --- | --- | --- | --- | --- | --- | --- | --- | --- | --- | --- | --- | --- |
| O=CNc1ncn[nH]1 | > 100 µM | > 100 µM | > 100 µM | > 100 µM | > 100 | > 100 µM | > 100 µM | > 100 µM | > 100 µM | > 100 µM | – | – | – | – | – | – | – | – | – | – |
| Cc1ccc(C(SCC(N)C(=O)O)(c2ccc(C)cc2)c2ccc(C)cc2)cc1 (centres undefined) | 22.6 µM | > 49.8 µM | 5.62 µM | 20.5 µM | 6.91 | 27.9 µM | > 34.8 µM | 21.9 µM | 7.39 µM | 12 µM | 8.31 µM | 9.84 µM | 2.14 µM | 3.33 µM | 1.92 | 4.54 µM | 3.55 µM | 3.5 µM | 2.22 µM | 2.3 |
| O=[N+]([O-])c1ccccc1N/N=C\c1c[nH]c2ccccc12 | > 72.6 µM | > 100 µM | > 100 µM | > 100 µM | > 100 | > 100 µM | > 61.7 µM | > 100 µM | > 64.9 µM | > 100 µM | 15 µM | 12.6 µM | 24.5 µM | > 21.5 µM | 3.4 | 5.68 µM | 16.8 µM | 3.52 µM | 8.18 µM | 10.3 |
| CC(C)(C)C(=O)OCOP(=O)(OCOC(=O)C(C)(C)C)C1CC(O)N(O)C1=O (centres undefined) | > 100 µM | > 100 µM | > 100 µM | 8.63 µM | 75.2 | > 100 µM | 16.4 µM | 89.7 µM | > 100 µM | > 100 µM | 20.2 µM | 33.5 µM | 8.66 µM | 2.96 µM | 4.2 | 4.28 µM | 3.07 µM | 5.9 µM | 9.79 µM | 4.35 |
| CS(=O)(=O)Nc1ccc(-c2cc(-c3ccccc3)cc(C(N)=O)c2N)cc1 | > 25 µM | > 25 µM | > 25 µM | > 25 µM | > 25 | > 25 µM | > 25 µM | > 25 µM | > 25 µM | > 25 µM | > 25 µM | > 25 µM | > 25 µM | > 25 µM | 16.5 | > 22.2 µM | > 25 µM | > 21.5 µM | > 23.8 µM | > 25 |
| O=C1C(=O)c2c(nc3ccc(Br)cn23)-c2ccccc21 | 3.78 µM | 3.41 µM | 3.55 µM | 2.67 µM | 1.52 | 2.66 µM | 6.12 µM | 3.89 µM | 0.889 µM | 2.69 µM | 2.28 µM | 1.61 µM | 1.78 µM | 1.37 µM | 0.33 | 0.759 µM | 2.44 µM | 1.44 µM | 0.265 µM | 1.09 |
| COc1ccc(C(SCC(N)C(=O)O)(c2ccccc2)c2ccccc2)cc1 (centres undefined) | > 100 µM | > 71.2 µM | 15.8 µM | > 100 µM | > 100 | > 72.2 µM | > 100 µM | > 100 µM | 0.503 µM | > 41.9 µM | 20.6 µM | 11.8 µM | 0.3 µM | 2.72 µM | 3.21 | 0.451 µM | 0.429 µM | 0.409 µM | 0.0677 µM | 0.23 |
| NC1CCC(Nc2nc(NCc3ccc(-c4cccs4)nc3)c3ncn(C4CCCC4)c3n2)CC1 (centres undefined) | 2.69 µM | 1.31 µM | 0.035 µM | 0.626 µM | 0.582 | 5.36 µM | 0.315 µM | 0.699 µM | 0.731 µM | 2.19 µM | 0.166 µM | 0.131 µM | 0.0169 µM | 0.131 µM | 0.0328 | 0.342 µM | < 0.0143 µM | 0.033 µM | 0.0492 µM | 0.0913 |
| CCN(CC)CCOc1ccccc1/C=C/c1noc2ccccc12 | 28.7 µM | 30.5 µM | 24.1 µM | 29.9 µM | 68 | 22.4 µM | 16 µM | 32.4 µM | 38.1 µM | 25.3 µM | – | – | – | – | – | – | – | – | – | – |
| Clc1cccc(Cl)c1C1CSc2ccccc2N=C1c1ccccc1 (centres undefined) | 9.27 µM | 74.2 µM | 33.5 µM | 17.1 µM | > 100 | 3.98 µM | 8.64 µM | 34.5 µM | 13.4 µM | 15.6 µM | 3.69 µM | 20.5 µM | 12.3 µM | 5.19 µM | 3.42 | 1.66 µM | 3.17 µM | 8.39 µM | 3.92 µM | 4.04 |
| O=C1c2ccccc2S(=O)(=O)N1CSC(=S)N1CCCCC1 | > 100 µM | > 100 µM | > 100 µM | > 100 µM | > 100 | > 100 µM | > 100 µM | > 100 µM | > 100 µM | > 100 µM | > 100 µM | > 100 µM | > 100 µM | > 100 µM | 0.266 | > 100 µM | > 29.2 µM | > 100 µM | > 100 µM | 5.5 |
| CC1=CC(=C(c2ccc(N)cc2)c2ccc(N)cc2)C=CC1=N | 15.6 µM and 50.2 µM and 19.5 µM | 16.5 µM and 19.6 µM and 46.6 µM | 1.6 µM and 4.86 µM and 3.38 µM | 5.47 µM and 7.09 µM and 9.14 µM | > 58.8 | 45.1 µM and > 74.7 µM and > 100 µM | 10.7 µM and 29.9 µM and 11.3 µM | 2.73 µM and 11.8 µM and 8.81 µM | 5.49 µM and 15.1 µM and 5.5 µM | 7.3 µM and 28.9 µM and 15.8 µM | 2.99 µM and 4.98 µM | 2.16 µM and 7.35 µM | 0.373 µM and 1.77 µM | 0.679 µM and 1.63 µM | – | 4.61 µM and 14.5 µM | 0.558 µM and 3.08 µM | 0.27 µM and 1.31 µM | 1.41 µM and 2.14 µM | 0.838 |
| Cc1cc(O)ccc1C1=NN(c2ccc(S(C)(=O)=O)cc2)C(=O)CC1 | > 100 µM | > 100 µM | 74.4 µM | > 100 µM | > 100 | > 100 µM | 32.3 µM | > 100 µM | 9.44 µM | > 100 µM | 80.5 µM | > 100 µM | 6.62 µM | 4.97 µM | 3.39 | 7.91 µM | 3.7 µM | 20.2 µM | 3.41 µM | 3.87 |
